Laboratory results reported in publication PMC9978853 (Acta Pharmaceutica Sinica. B, 2022).

Target: NAMPT (Mus musculus, UniProt Q99KQ4)
Assay: co-crystal structure
Assay type: binding

NAMPT, sequence (Q99KQ4 whole entry): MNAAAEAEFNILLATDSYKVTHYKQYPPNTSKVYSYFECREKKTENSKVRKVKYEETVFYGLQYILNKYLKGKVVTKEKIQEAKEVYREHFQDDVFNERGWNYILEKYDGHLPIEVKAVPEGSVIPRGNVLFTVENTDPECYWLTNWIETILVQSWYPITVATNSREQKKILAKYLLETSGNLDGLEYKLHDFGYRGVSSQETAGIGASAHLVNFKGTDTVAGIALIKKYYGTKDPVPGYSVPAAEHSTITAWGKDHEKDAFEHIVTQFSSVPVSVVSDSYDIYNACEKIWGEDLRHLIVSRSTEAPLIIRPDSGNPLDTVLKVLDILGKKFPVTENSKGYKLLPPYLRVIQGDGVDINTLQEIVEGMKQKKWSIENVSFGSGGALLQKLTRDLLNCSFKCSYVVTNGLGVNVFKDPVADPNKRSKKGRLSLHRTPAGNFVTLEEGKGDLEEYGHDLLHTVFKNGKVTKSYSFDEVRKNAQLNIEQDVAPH

Compound: O=C(NCc1ccc([C@@H]2O[C@H](COP(=O)(O)O)[C@@H](O)[C@H]2O)cc1)Nc1ccc(S(=O)(=O)c2ccccc2)cc1 [9a, ((2R,3S,4R,5S)-3,4-Dihydroxy-5-(4-((3-(4-(phenylsulfonyl)phenyl)ureido)methyl)phenyl)tetrahydrofuran-2-yl)methyldihydrogenphosphate]
- co-crystal structure: Compound 9a bound to dimeric NAMPT (PDB: 7Q8T).
